Source: the supplement of paper PMC5908809

Columns and labels:
[1] = test system: normal primary NK cells, pool 1 (3 donors) (IL-2 2.5 ng/mL); assay: percent inhibition of viability; higher = more inhibition; conditions: 72 h
NK-92 (IL-2 2.5 ng/mL) [2] = assay: as above; conditions: 72 h
SNK-6 (IL-2 2.5 ng/mL) [3] = assay: as above; conditions: 72 h
KHYG-1 (IL-2 2.5 ng/mL) [4] = assay: as above; conditions: 72 h
DERL-7 (IL-2 2.5 ng/mL) [5] = assay: as above; conditions: 72 h
NK-YS (IL-2 2.5 ng/mL) [6] = assay: as above; conditions: 72 h
NKL (IL-2 2.5 ng/mL) [7] = assay: as above; conditions: 72 h
YT (IL-2 2.5 ng/mL) [8] = assay: as above; conditions: 72 h
[9] = test system: normal primary NK cells, pool 1 (3 donors), resting (IL-2 0 ng/mL); assay: as above; conditions: 72 h
[10] = test system: normal primary NK cells, pool 2 (3 donors) (IL-2 2.5 ng/mL); assay: as above; conditions: 72 h
IMC-1 (IL-2 20 ng/mL) [11] = assay: as above; conditions: 72 h
[12] = test system: normal primary NK cells, pool 3 (3 donors) (IL-2 2.5 ng/mL); assay: as above; conditions: 72 h
KAI3 (IL-2 2.5 ng/mL) [13] = assay: as above; conditions: 72 h
[14] = test system: normal NK cells expanded with K562-aAPC; assay: as above; conditions: 72 h, IL-2 2.5 ng/mL
Description: (§1)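 Drug sensitivity and resistance testing on K562-aAPC-expanded normal NK cells: 5 concentrations (10-fold steps over a 10,000-fold range), 72 h at 37 °C, viability by CellTiter-Glo normalised to DMSO and benzethonium chloride controls; DSS from the fitted curve.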

[15] = test system: normal NK cells expanded with K562-aAPC; assay: drug sensitivity score (DSS) (DSS units); higher = more sensitive; extreme values may be limits of the assay; conditions: 72 h; IL-2 2.5 ng/mL
Description: as §1

[16] = test system: normal primary NK cells, pool 1 (3 donors) (IL-2 2.5 ng/mL); assay: as above; conditions: 72 h
NK-92 (IL-2 2.5 ng/mL) [17] = assay: as above; conditions: 72 h
SNK-6 (IL-2 2.5 ng/mL) [18] = assay: as above; conditions: 72 h
KHYG-1 (IL-2 2.5 ng/mL) [19] = assay: as above; conditions: 72 h
DERL-7 (IL-2 2.5 ng/mL) [20] = assay: as above; conditions: 72 h
NK-YS (IL-2 2.5 ng/mL) [21] = assay: as above; conditions: 72 h
NKL (IL-2 2.5 ng/mL) [22] = assay: as above; conditions: 72 h
YT (IL-2 2.5 ng/mL) [23] = assay: as above; conditions: 72 h
[24] = test system: normal primary NK cells, pool 1 (3 donors), resting (IL-2 0 ng/mL); assay: as above; conditions: 72 h
[25] = test system: normal primary NK cells, pool 2 (3 donors) (IL-2 2.5 ng/mL); assay: as above; conditions: 72 h
IMC-1 (IL-2 20 ng/mL) [26] = assay: as above; conditions: 72 h
[27] = test system: normal primary NK cells, pool 3 (3 donors) (IL-2 2.5 ng/mL); assay: as above; conditions: 72 h
KAI3 (IL-2 2.5 ng/mL) [28] = assay: as above; conditions: 72 h

Cn1nnc2c(C(N)=O)ncn2c1=O [Temozolomide] (max concentration tested 100000 nM)
percent inhibition of viability [%]
Conditions	10 nM	100 nM	1000 nM	10000 nM	100000 nM
DERL-7 (IL-2 2.5 ng/mL) [5]	-3.81	2.52	-0.21	4.75	-1.49
IMC-1 (IL-2 20 ng/mL) [11]	1.34	-6.01	5.36	17.9	74.4
KAI3 (IL-2 2.5 ng/mL) [13]	-11.8	-10.3	-9.47	-11.7	12.9
KHYG-1 (IL-2 2.5 ng/mL) [4]	-3.41	-4.13	0.86	0.71	8.74
NK-92 (IL-2 2.5 ng/mL) [2]	-7.14	-7.33	-5.28	7.55	32.4
NK-YS (IL-2 2.5 ng/mL) [6]	-2.59	-6.14	2.38	3.13	22.3
NKL (IL-2 2.5 ng/mL) [7]	-9.55	-19.8	-10.2	4.85	65.2
SNK-6 (IL-2 2.5 ng/mL) [3]	-0.07	8.23	35.2	72.8	88.5
YT (IL-2 2.5 ng/mL) [8]	-4.31	-3.78	-0.54	-3.29	0.79
[1]	-7.39	2.46	-6.83	-0.09	5.41
[9]	-13.7	-5.7	-14.4	-9.04	-7.4
[10]	-14.2	-9.61	-8.15	11.5	10
[12]	-14.7	-11.8	-7.32	6.58	17.2
[14]	0.11	-2.44	4.25	0.95	10.9

Conditions	drug sensitivity score
DERL-7 (IL-2 2.5 ng/mL) [20]	0
IMC-1 (IL-2 20 ng/mL) [26]	6.93
KAI3 (IL-2 2.5 ng/mL) [28]	0.01
KHYG-1 (IL-2 2.5 ng/mL) [19]	0
NK-92 (IL-2 2.5 ng/mL) [17]	2.63
NK-YS (IL-2 2.5 ng/mL) [21]	1.21
NKL (IL-2 2.5 ng/mL) [22]	4.31
SNK-6 (IL-2 2.5 ng/mL) [18]	18
YT (IL-2 2.5 ng/mL) [23]	0
[15]	0.02
[16]	0
[24]	0
[25]	0.32
[27]	1.03

CN[C@@H]1C[C@H]2O[C@@](C)([C@@H]1OC)n1c3ccccc3c3c4c(c5c6ccccc6n2c5c31)C(=O)N[C@H]4O [UCN-01] (max concentration tested 10000 nM)
percent inhibition of viability [%]
Conditions	1 nM	10 nM	100 nM	1000 nM	10000 nM
DERL-7 (IL-2 2.5 ng/mL) [5]	8.29	22.9	82.2	101	101
IMC-1 (IL-2 20 ng/mL) [11]	-7.27	-2.85	-13.4	100	101
KAI3 (IL-2 2.5 ng/mL) [13]	6.37	19.1	95.1	105	107
KHYG-1 (IL-2 2.5 ng/mL) [4]	4.96	7.2	103	110	108
NK-92 (IL-2 2.5 ng/mL) [2]	-0.38	4.42	89.2	107	109
NK-YS (IL-2 2.5 ng/mL) [6]	2.38	1.74	83.6	96.9	105
NKL (IL-2 2.5 ng/mL) [7]	-2.69	2.69	78.1	90.6	106
SNK-6 (IL-2 2.5 ng/mL) [3]	-11	34	92.7	100	101
YT (IL-2 2.5 ng/mL) [8]	4.61	17.4	28.1	93	108
[1]	4.79	0.37	51.1	95.7	99.2
[9]	-5.95	4.23	23.4	84.6	92.1
[10]	-7.23	6.32	58.8	95.4	99
[12]	-5.75	2.95	40.4	97.2	101
[14]	0.67	13.9	76.9	100	101

Conditions	drug sensitivity score
DERL-7 (IL-2 2.5 ng/mL) [20]	30.4
IMC-1 (IL-2 20 ng/mL) [26]	17.1
KAI3 (IL-2 2.5 ng/mL) [28]	32.4
KHYG-1 (IL-2 2.5 ng/mL) [19]	31.8
NK-92 (IL-2 2.5 ng/mL) [17]	29.2
NK-YS (IL-2 2.5 ng/mL) [21]	27.8
NKL (IL-2 2.5 ng/mL) [22]	27.4
SNK-6 (IL-2 2.5 ng/mL) [18]	34
YT (IL-2 2.5 ng/mL) [23]	20.2
[15]	28.5
[16]	23.8
[24]	18.3
[25]	24.8
[27]	22.5

Nc1ncnc2c1c(COc1cccc(Cl)c1)nn2C1CCOCC1 (max concentration tested 10000 nM)
percent inhibition of viability [%]
Conditions	1 nM	10 nM	100 nM	1000 nM	10000 nM
DERL-7 (IL-2 2.5 ng/mL) [5]	-1.45	-6.37	0.64	4.1	23.4
IMC-1 (IL-2 20 ng/mL) [11]	-0.63	-0.09	1.3	2.67	5.66
KAI3 (IL-2 2.5 ng/mL) [13]	-4.22	-5.6	-4.5	-2.39	10.8
KHYG-1 (IL-2 2.5 ng/mL) [4]	3.82	3.26	2.76	9.04	2.95
NK-92 (IL-2 2.5 ng/mL) [2]	5.04	-5.45	2.8	11.6	20.2
NK-YS (IL-2 2.5 ng/mL) [6]	-2.03	-5.09	-3.81	-2.25	1.95
NKL (IL-2 2.5 ng/mL) [7]	2.65	1.05	6.33	7.05	28
SNK-6 (IL-2 2.5 ng/mL) [3]	11.9	13.8	-0.97	16.6	15
YT (IL-2 2.5 ng/mL) [8]	5.62	8.61	4.5	8.08	29.8
[1]	-5.02	-2.71	-7	-1.66	12.2
[9]	-7.87	-6	-17.2	5.79	10.6
[10]	-11.2	-9.94	-1.24	-2.49	18.9
[12]	-12.8	-14.6	-0.61	5.01	13
[14]	-1.33	-1.38	-0.63	3.72	15.8

Conditions	drug sensitivity score
DERL-7 (IL-2 2.5 ng/mL) [20]	1.44
IMC-1 (IL-2 20 ng/mL) [26]	0
KAI3 (IL-2 2.5 ng/mL) [28]	0
KHYG-1 (IL-2 2.5 ng/mL) [19]	0
NK-92 (IL-2 2.5 ng/mL) [17]	1.45
NK-YS (IL-2 2.5 ng/mL) [21]	0
NKL (IL-2 2.5 ng/mL) [22]	1.92
SNK-6 (IL-2 2.5 ng/mL) [18]	0
YT (IL-2 2.5 ng/mL) [23]	2.23
[15]	0.66
[16]	0.03
[24]	0.06
[25]	0.39
[27]	0.39
